In this assay the target is T1, CaCYP707A2 (Capsicum annuum, UniProt X2C029).
T1 construct: gene CYP707A70; full-length, no N-terminal modification; pCW ori(+) in E. coli Rosetta (DE3) pLysS; 54 kDa
T1 sequence (X2C029 1-477): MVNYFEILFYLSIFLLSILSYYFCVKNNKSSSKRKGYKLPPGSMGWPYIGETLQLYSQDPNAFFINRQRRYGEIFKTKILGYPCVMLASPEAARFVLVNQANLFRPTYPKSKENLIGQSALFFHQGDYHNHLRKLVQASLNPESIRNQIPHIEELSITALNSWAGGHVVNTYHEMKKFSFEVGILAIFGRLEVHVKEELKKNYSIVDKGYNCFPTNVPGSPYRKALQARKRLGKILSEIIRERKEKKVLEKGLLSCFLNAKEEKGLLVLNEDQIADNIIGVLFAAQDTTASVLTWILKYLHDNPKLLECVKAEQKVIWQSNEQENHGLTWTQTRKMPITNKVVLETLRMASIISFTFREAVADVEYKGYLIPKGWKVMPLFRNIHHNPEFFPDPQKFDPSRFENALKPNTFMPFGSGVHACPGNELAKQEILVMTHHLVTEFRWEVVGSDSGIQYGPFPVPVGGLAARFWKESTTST
Kind of assay: spectral binding titration (type I UV-visible difference spectrum).

The molecule `CC1=CC(=O)CC(C)(C)C1(O)/C=C/C(C)=C\C(=O)O` (stereo in doubt) [(+)-ABA] had a Kd of 5.8 ± 0.93 µM.

Values taken from paper PMC10084752, “Heterologous Expression of the Hot Pepper ABA 8’-Hydroxylase in Escherichia coli for Phaseic Acid Production” (Journal of Microbiology and Biotechnology, 2023).
